Calls of active or inactive are those of the source. The rule behind the calls is not given here.
Assays:
Micrococcus luteus = test: Antibacterial activity against Micrococcus luteus by agar diffusion assay; format: functional, organism-based
Bacillus subtilis = test: Antibacterial activity against Bacillus subtilis by agar diffusion assay; format: functional, organism-based
Escherichia coli = test: Antibacterial activity against Escherichia coli DH10B by agar diffusion assay; format: functional; conditions: K-12 substr. DH10B
Trypanosoma cruzi = test: Antitrypanosomal activity against trypomastigote forms of Trypanosoma cruzi Tulahuen C4; format: functional, organism-based
Saccharomyces cerevisiae = test: […] activity against Saccharomyces cerevisiae by agar diffusion assay; format: functional, organism-based
L6 = test: Cytotoxicity against rat L6 cells; format: cell-based
Plasmodium falciparum = test: Antiplasmodial activity against erythrocytic stages of Plasmodium falciparum NF54; format: functional, organism-based
[1] = test system: Trypanosoma brucei rhodesiense; test: Antitrypanosomal activity against bloodstream forms of Trypanosoma brucei rhodesiense STIB900; format: functional, organism-based
[2] = Selectivity index, ratio of IC50 for rat L6 cells to IC50 for erythrocytic stages of Plasmodium falciparum NF54; format: toxicity, cell-based; conditions: read-out: Ratio IC50

IC50 (Trypanosoma cruzi) [µM] | IC50 (Plasmodium falciparum) [µM] | IC50 [1] [µM] | SMILES | Activity (Micrococcus luteus) | Activity (Bacillus subtilis) | Activity (Escherichia coli) | Activity (Saccharomyces cerevisiae) | IC50 (L6) [µM] | selectivity ratio [2]
98.9 | 15.4 | 77.6 | CCC(=O)N[C@@H]1C(=O)N[C@H](Cc2ccccc2)C(=O)N[C@H](C)C(=O)N2CCC[C@H]2C(=O)N[C@@H](Cc2c[nH]c3ccccc23)C(=O)O[C@@H]1C | inactive | inactive | inactive | inactive | > 151 | –
56.4 | 0.61 | 5.11 | C[C@H]1NC(=O)[C@@H](Cc2ccccc2)NC(=O)[C@@H](NC(=O)Cc2ccccc2)[C@@H](C)OC(=O)[C@H](Cc2c[nH]c3ccccc23)NC(=O)[C@@H]2CCCN2C1=O | inactive | inactive | inactive | inactive | 92.2 | > 151

SMILES | IC50 (Trypanosoma cruzi) [µM] | IC50 (Plasmodium falciparum) [µM] | IC50 [1] [µM] | Activity (Micrococcus luteus) | Activity (Bacillus subtilis) | Activity (Escherichia coli) | Activity (Saccharomyces cerevisiae) | IC50 (L6) [µM] | selectivity ratio [2]
O=C(Cn1ccnc1[N+](=O)[O-])NCc1ccccc1 [BENZNIDAZOLE] | 1.73 | – | – | – | – | – | – | – | –
